Test results taken from article PMC4585333, “Novel Regulator of Acylated Ghrelin, CF801, Reduces Weight Gain, Rebound Feeding after a Fast, and Adiposity in Mice” (Frontiers in Endocrinology, 2015).
Entries after “also recorded” stand apart in the source; their conditions may differ.

What was measured:
Format in all cases: in vivo, male C57BL/6J mice
[1] = system: plasma acylated ghrelin; assay: Plasma acylated ghrelin in fasted mice (ELISA)
Procedure: (§1) In general, male C57BL/6J mice (The Jackson Laboratory, Bar Harbor, ME, USA) weighing 20–25 g were used as experimental subjects. Throughout the duration of the studies, mice were housed under standard laboratory conditions and received ad libitum access to standard laboratory mouse chow and tap water. Lights in the facility were set to go on and off at 12 h intervals with the lights going on at 7:00 a.m. In some experiments, mice also had ad libitum access to a high-fat diet containing 60% caloric content from fat (TD 06414; Harlan Teklad, Indianapolis, IN, USA) in addition to regular chow to measure dietary preferences. All procedures were approved by the Carleton University Animal Care Committee and followed the guidelines of the Canadian Council on Animal Care.
Mice (n = 16) were singly housed and given free access to water and regular chow for a 4-day baseline period. After this, mice were assigned to one of three groups: vehicle (n = 5), CF801 low dose (n = 5; 11 μmol⋅kg^−1 – LD), or CF801 high dose (n = 6; 22 μmol⋅kg^−1 – HD). […] Food intake was then monitored every hour for 4 h to determine the effects of CF801 on rebound feeding. […]
Following the treatment or recovery periods, mice were killed by rapid decapitation and plasma and tissue samples were collected. […] Plasma acylated ghrelin for all animals was measured using an ELISA kit (Millipore).

[2] = Blood glucose in trunk blood; details: after 4 days i.p. treatment, fast and refeeding, F(1,15) = 1.105, p > 0.05
Procedure: Mice (n = 16) were singly housed and given free access to water and regular chow for a 4-day baseline period. After this, mice were assigned to one of three groups: vehicle (n = 5), CF801 low dose (n = 5; 11 μmol⋅kg^−1 – LD), or CF801 high dose (n = 6; 22 μmol⋅kg^−1 – HD). These mice were injected intraperitoneally once a day for 4 days starting at 10:00 a.m. Following 4 days of treatment, animals were tested for rebound feeding after a fast. To do this, we removed the food from each cage 1 h before lights out (6:00 p.m.), and food was returned to the cage the following day 1 h after the last injection. Food intake was then monitored every hour for 4 h to determine the effects of CF801 on rebound feeding. Animals were then sacrificed by rapid decapitation to collect trunk blood and other tissues. Two samples were lost during sample collection, so the number of samples used to measure acylated ghrelin was reduced to n = 14.
Following the treatment or recovery periods, mice were killed by rapid decapitation and plasma and tissue samples were collected. To measure glucose levels, glucose strips attached to a Contour glucose meter (Bayer Corp., Pittsburgh, PA, USA) were dipped in trunk blood collected before being centrifuged. […] Plasma acylated ghrelin for all animals was measured using an ELISA kit (Millipore).

[3] = Food intake and dietary preference (chow and high-fat diet)
Procedure: as §1
(§2) A second cohort of mice (n = 30) was acclimated to the laboratory conditions for 1 week prior to the onset of the experiment. Mice were housed individually and their body weight and food intake was recorded daily for a baseline period of 10 days. Given that ghrelin augments the intake of preferred diets ([28]), all mice received ad libitum access to a high-fat diet (60% of calories coming from fat), in addition to regular chow, to determine if CF801 altered dietary preference. Both chow and high-fat diet pellets were provided daily to mice ad libitum in pre-weighed amounts. Mice were then assigned to four different groups: non-injected control (NIC; n = 7), vehicle (0.9% saline) (VEH; n = 7), low-dose CF801 (11 μmol⋅kg^−1 – LD; n = 8) and high-dose CF801 (22 μmol⋅kg^−1 – HD; n = 8). Each day at 09:00 hours, mice were weighed and their food intake (both chow and high-fat diet) was recorded. After this, mice received an intraperitoneal injection of either CF801 or saline (except for the non-injected controls). Following the 13-day treatment period, half the animals in each group were sacrificed, while the remaining mice were allowed to recover from treatment. […] At this point, the remaining mice were sacrificed. Carcasses from all animals were frozen and stored at −80°C until they were scanned for body composition analyses. Immediately prior to analysis, all carcasses were thawed to room temperature and weighed in order to obtain measures relative to total carcass mass. EchoMRI carcass analyses were performed at Health Canada, Nutrition Research Division facilities using the EchoMRI-1100 (System ID EF-020) scanner. Each carcass was analyzed separately and measurements of total fat mass, total lean mass, and total water weight were obtained for each mouse.

[4] = Indirect calorimetry, respiratory exchange ratio; details: 22 μmol⋅kg^−1 i.p. daily for a week, 4-h period following injection, n = 5 vs saline n = 5; t(5) = 3.457, p < 0.05
Procedure: Mice (n = 10) were housed individually and their body weight and food intake was recorded daily for a baseline period of 10 days. As in Experiment 1, all mice had ad libitum access to regular lab chow and a high-fat diet (60% of calories coming from fat). At the end of the baseline, mice were housed in metabolic chambers (TSE Systems) for 48 h to examine metabolic rate using indirect calorimetry prior to the onset of the drug treatment. While indirect calorimetry measures were obtained throughout the 48-h period, we only analyzed measurements in the last 24 h to allow the animals to adjust to the chambers. Mice were then assigned to one of two groups: vehicle (0.9% saline) (VEH; n = 5) and CF801 (22 μmol⋅kg^−1; n = 5). Each day at 09:00 hours, mice were weighed and their food intake (both chow and high-fat diet) was recorded, and then received an intraperitoneal injection of either CF801 or saline. Drug treatment continued for 16 days. On the eighth day, mice were again placed in the metabolic chambers for 48 h while still being monitored and injected with their respective treatment to determine differences in metabolism produced by the drug.
Given that treatment with CF801 decreased weight gain without altering caloric intake, we reasoned that perhaps CF801 was exerting its effects at the metabolic level. […]

[5] = Metabolic efficiency; details: treatment period
Procedure: as §2
Metabolic efficiency, defined as the amount of weight gained per calorie of energy consumed during a given time period, was calculated for each mouse during the baseline and treatment period. There were no differences in metabolic efficiency between any groups during the baseline period (data not shown).

With GSAFLSPEHQRK KRRQRRR-NH2 [CF801] the “plasma acylated ghrelin concentration, high dose” value ([1]; 22 μmol⋅kg^−1 i.p. once daily for 4 days, after fast, vs vehicle, p < 0.05 Fisher LSD) was “statistically significant; also recorded: reduced levels of plasma acylated ghrelin”, the “plasma acylated ghrelin concentration, dose dependence” value ([1]; i.p. once daily for 4 days, 11 and 22 μmol⋅kg^−1, F(2,24) = 2.90, p < 0.05, partial eta^2 = 0.22) was “dose-dependent decrease in plasma ghrelin concentrations” and the blood glucose concentrations [2] was “No significant differences”. For the same sequence, the “high-fat diet intake, low dose vs NIC and VEH” value ([3]; 11 μmol⋅kg^−1 i.p. daily, 13 days, p's < 0.05) was “significantly less high-fat diet”, the “regular chow consumption, high dose” value ([3]; 22 μmol⋅kg^−1 i.p. daily, 13 days, vs every other group, F(3,28) = 5.305, p < 0.05, partial eta^2 = 0.41) was “significantly more regular chow” and the “high-fat diet intake, high dose vs NIC and VEH” value ([3]; 22 μmol⋅kg^−1 i.p. daily, 13 days, p's < 0.05) was “significantly less high-fat diet”. The “caloric intake, recovery period” value ([3]; 8-day recovery without injection, F(1,29) = 2.093, p > 0.05) was “no differences between any groups”, the “caloric intake, treatment period” value ([3]; 13-day i.p. treatment, 11 and 22 μmol⋅kg^−1, chow plus high-fat diet, F(1,29) = 0.783, p > 0.05) was “no differences between any groups” and the “high-fat diet intake, dose dependence” value ([3]; 13-day i.p. treatment, F(3,29) = 6.788, p < 0.05, partial eta^2 = 0.45) was “overall significant dose-dependent decrease in the intake of the high-fat diet”. For the same sequence, the “high-fat diet intake, high dose vs low dose” value ([3]; 22 vs 11 μmol⋅kg^−1 i.p. daily, 13 days) was “tended to consume less than animals receiving LD CF801 (p = 0.073)”, the “caloric intake at end of treatment period” value ([3]; once CF801 injections stop) was “small spike in caloric intake” and the “respiratory exchange ratio (RER)” value [4] was “significant decrease in RER”. The “metabolic efficiency, low dose vs NIC and VEH” value ([5]; 11 μmol⋅kg^−1 i.p., p < 0.05, overall F(1,29) = 9.086, partial eta^2 = 0.522) was “significantly lower metabolic efficiencies”, the “metabolic efficiency, high dose vs NIC and VEH” value ([5]; 22 μmol⋅kg^−1 i.p., p < 0.05, overall F(1,29) = 9.086, partial eta^2 = 0.522) was “significantly lower metabolic efficiencies” and the “metabolic efficiency, high dose vs low dose” value ([5]; 22 vs 11 μmol⋅kg^−1 i.p., p > 0.05) was “no different than animals receiving LD CF801”.
